Here are results for six compounds from patent US20060122234A1, “Substituted thienyl-hydroxamic acids as histone deacetylase inhibitors” (Argenta Discovery Limited, priority 2002, published 2006).

Molecules are shown by their SMILES.

Assay [1] concerns histone deacetylase activity (total lysates from K562 cells or HeLa nuclear extracts). Description: Deacetylase assay (primary assay), fluorescent acetylated-lysine substrate. It counts as biochemical, human. To be noted: 30 minutes, 116 μM fluorescent substrate, 1% DMSO; read-out: IC50 (histone deacetylase enzymatic activity). The method, then: Compounds are tested for their capacity to inhibit histone deacetylase activity (primary assay) and for their biological effects on growing cells (secondary assay).
Total lysates from K562 chronic human myelogenous leukemia cells (obtained from American Type Culture Collection, Rockville, Md.) are used as source of HDAC activity. Cells are grown in RPMI media supplied with 10% FCS, harvested by centrifugation, washed once in PBS and resuspended at a density of 24×10^6/ml in HDA buffer (15 mM Potassium phosphate pH 7.5, 5% glycerol, 0.2 mM EDTA). After sonication, lysates are centrifuged at 1000 g for 20 minutes and the resulting supernatant is aliquoted and stored at −80° C. Alternatively, commercially available HeLa nuclear extracts (BIOMOL) are used as source of histone deacetylase activity.
The assay was carried out for 30 minutes using 116 μM of a fluorescent substrate containing an acetylated lysine (BIOMOL). When deacetylation of the lysine occurs, the substrate can react with the added developer producing a fluorophore. The amount of fluorophore produced is proportional to the HDAC activity in the sample and is quantified using a multiwell fluorimeter capable of excitation at 360 nm and detection at 450 nm.
Compounds are diluted in DMSO prior to addition to assay buffer, the final DMSO concentration in the assay being 1%.
The percent activity of the compounds in reducing histone deacetylase enzymatic activity is calculated as follow: % activity={(F^S−B)/(F^C−B)}×100 where: […]
F^S is the fluorescence at 450 nm in the presence of the tested compound (Sample).
F^C is the fluorescence at 450 nm in the presence of vehicle 1% DMSO (Control). B is the fluorescence at 450 nm in the absence of enzyme (Background fluorescence)
(§1) The IC50 is defined as the concentration at which a given compound achieves 50% activity. IC50 values are calculated using the XLfit software package (version 2.0.5).

Assay [2] concerns MDA-MB-231 human mammary gland adenocarcinoma cells. Nature of the assay: Cell proliferation assay (secondary assay), CyQUANT, MDA-MB-231. It counts as cell-based. To be noted: MDA-MB-231, 72h exposure, 0.1% DMSO. Here is the method: (§2) Compounds are tested in a cell proliferation assay using the following cell lines:
MDA-MB-231 are kept in L-15 (Leibovitz) medium (Gibco) supplemented with 15% FCS at 37° C. in a non-modified atmosphere, humidified incubator.
(§3) Cells are seeded in 96-well plates at a density of 20,000 cells/ml (3,000 cells/well) and after 24 h they are exposed to different concentrations of compounds in 0.1% DMSO. Cells are grown for a further 72h, the media is removed and the cells are frozen at −80° C. for at least 30 minutes and lysed in a solution containing the CyQUANT dye. […] Therefore the fluorescence intensity is proportional to the number of cells present in each well and can be quantified using a multiwell fluorimeter by measuring the fluorescence of the solution at 520 nm.
(§4) The percent activity of the compounds in reducing cell number is calculated as follow: % activity={(A^S−B)/(A^C−B)}×100 where: […]
(§5) A^S is the fluorescence at 520 nm in the presence of the tested compound (Sample).
(§6) A^C is the fluorescence at 520 nm in the presence of vehicle 0.1% DMSO (Control).
(§7) B is the fluorescence at 520 nm in the absence of cells (Background fluorescence).
as §1

In assay [3] the test system is MCF-7 human mammary gland adenocarcinoma cells. Nature of the assay: Cell proliferation assay (secondary assay), CyQUANT, MCF-7. It counts as cell-based. Conditions: MCF7, MCF-7, 72h exposure, 0.1% DMSO. The method, then:
as §2
Both cell lines are free of Mycoplasma contamination (PCR Mycoplasma Detection Set, Takara). MCF-7 are kept in MEM medium (Gibco) supplemented with 10% FCS and 1% Non Essential Amino Acids at 37° C. in a 5% CO2 humidified incubator.
as §3, §4, §5, §6, §7, §1

In general, IC50 refers to the concentration at which inhibition is half-maximal. `O=C(NO)c1ccc(-c2ccccc2)s1` [Example 1 (g), 5-Phenyl-thiophene-2-carboxylic acid hydroxyamide]: the figures for the IC50 in assay [1], in assay [2] and in assay [3] were 0.9 µM, 44 µM and 31 µM, respectively.

Consider `O=C(NO)c1ccc(-c2nccc(OCc3ccccc3)n2)s1` [Example 1 (z), 5-(4-Benzyloxy-pyrimidin-2-yl)-thiophene-2-carboxylic acid hydroxyamide], for which the half-inhibitory concentration (IC50) in assay [1] is 0.076 µM; in assay [2] it was 7.3 µM; in assay [3] it was 2.3 µM.

As to `Cn1nc(C(F)(F)F)cc1-c1ccc(C(=O)NO)s1` [Example 1 (a), 5-(2-Methyl-5-trifluoromethyl-2H-pyrazol-3-yl)-thiophene-2-carboxylic acid hydroxyamide], the IC50 in assay [2] came to 32 µM; in assay [3], 11 µM.

`O=C(NO)c1ccc(-c2ccn(Cc3ccccc3)n2)s1` [Example 1 (l), 5-(1-Benzyl-1H-pyrazol-3-yl)-thiophene-2-carboxylic acid hydroxyamide]: the 50% inhibitory concentration (IC50) in assay [1] worked out at 0.153 µM; in assay [2] it was 4.5 µM; in assay [3], 2.1 µM.

Consider `O=C(NO)c1ccc(-c2ccc(NCc3cc4ccccc4o3)cn2)s1` [Example 1 (ba), 5-{5-[(Benzofuran-2-ylmethyl)-amino]-pyridin-2-yl}-thiophene-2-carboxylic acid hydroxyamide], for which the IC50 in assay [1] turned out to be 0.062 µM; in assay [2] it was 2 µM; in assay [3], 0.6 µM.

Consider `NS(=O)(=O)c1cccc(NC(=O)Cn2ccc(-c3ccc(C(=O)NO)s3)n2)c1` [Example 1 (dc), 5-{1-[(3-Sulfamoyl-phenylcarbamoyl)-methyl]-1H-pyrazol-3-yl}-thiophene-2-carboxylic acid hydroxyamide], for which the half-inhibitory concentration (IC50) in assay [1] is 0.242 µM.
